Structures can show the parent of a compound that is named as a salt. Where two headings read alike, the source gives them in different places.
Target: T1, human histamine H3 receptor (Homo sapiens, UniProt Q9Y5N1)
T1 construct: expressed in transfected cells; membranes prepared from cell pellets
Assay: [3H]-N-methylhistamine binding to membranes of histamine H3 receptor-expressing SK-N-MC cells
Procedure: Thus in the present invention receptor binding was determined using the human histamine H3 receptor (See Lovenberg et al Mol. Pharmacol. 1999, 1107). Screening using the human receptor is particularly important for the identification of new therapies for the treatment of human disease. Conventional binding assays for example are determined using rat synaptosomes (Garbarg et al J. Pharmacol. Exp. Ther. 1992, 263, 304), rat cortical membranes (West et al Mol. Pharmacol. 1990, 610), and guinea pig brain (Korte et al Biochem. Biophys. Res. Commun. 1990, 978).
Transfection of Cells with Human Histamine Receptor
A 10 cm tissue culture dish with a confluent monolayer of SK-N-MC cells was split two days prior to transfection. Using sterile technique the media was removed and the cells were detached from the dish by the addition of trypsin. One fifth of the cells were then placed onto a new 10 cm dish. Cells were grown in a 37° C. incubator with 5% CO2 in Minimal Essential Media Eagle with 10% Fetal Bovine Serum. After two days cells were approximately 80% confluent. These were removed from the dish with trypsin and pelleted in a clinical centrifuge. The pellet was then re-suspended in 400 μL complete media and transferred to an electroporation cuvette with a 0.4 cm gap between the electrodes (Bio-Rad #165–2088). One microgram of supercoiled H3 receptor cDNA was added to the cells and mixed. The voltage for the electroporation was set at 0.25 kV, the capacitance was set at 960 μF. After electroporation the cells were diluted into 10 mL complete media and plated onto four 10 cm dishes. Because of the variability in the efficiency of electroporation, four different concentrations of cells were plated. The ratios used were; 1:20, 1:10, 1:5, with the remainder of the cells being added to the fourth dish. The cells were allowed to recover for 24 hours before adding the selection media (complete media with 600 μg/mL G418). After 10 days dishes were analyzed for surviving colonies of cells. Dishes with well isolated colonies were used. Cells from individual colonies were isolated and tested. SK-N-MC cells were used because they give efficient coupling for inhibition of adenylate cyclase. The clones that gave the most robust inhibition of adenylate cyclase in response to histamine were used for further study.
[^3H]-N-methylhistamine Binding
Cell pellets from histamine H3 receptor-expressing SK-N-MC cells were homogenized in 20 mM TrisHCI/0.5 mM EDTA. Supernatants from a 800 g spin were collected, recentrifuged at 30,000 g for 30 minutes. Pellets were re-homogenized in 50 mM Tris/5 mM EDTA (pH 7.4). Membranes were incubated with 0.8 nM [^3H]-N-methylhistamine plus/minus test compounds for 45 min at 25° C. and harvested by rapid filtration over GF/C glass fiber filters (pretreated with 0.3% polyethylenimine) followed by four washes with ice cold buffer. Filters were dried, added to 4 mL scintillation cocktail and then counted on a liquid scintillation counter. Non-specific binding was defined with 10 μM histamine. The pKi values were calculated based on a Kd of 800 pM and a ligand concentration ([L]) of 800 pM according to the formula: Ki=(IC50)/(1+([L]/(Kd))

[1] = 0.8 nM [3H]-N-methylhistamine, 45 min at 25° C., SK-N-MC cell membranes, […], read-out: Ki
[2] = 0.8 nM [3H]-N-methylhistamine, 45 min at 25° C., SK-N-MC cell membranes, Ki=(IC50)/(1+([L]/(Kd)), read-out: Ki

T1 sequence (Q9Y5N1 whole entry): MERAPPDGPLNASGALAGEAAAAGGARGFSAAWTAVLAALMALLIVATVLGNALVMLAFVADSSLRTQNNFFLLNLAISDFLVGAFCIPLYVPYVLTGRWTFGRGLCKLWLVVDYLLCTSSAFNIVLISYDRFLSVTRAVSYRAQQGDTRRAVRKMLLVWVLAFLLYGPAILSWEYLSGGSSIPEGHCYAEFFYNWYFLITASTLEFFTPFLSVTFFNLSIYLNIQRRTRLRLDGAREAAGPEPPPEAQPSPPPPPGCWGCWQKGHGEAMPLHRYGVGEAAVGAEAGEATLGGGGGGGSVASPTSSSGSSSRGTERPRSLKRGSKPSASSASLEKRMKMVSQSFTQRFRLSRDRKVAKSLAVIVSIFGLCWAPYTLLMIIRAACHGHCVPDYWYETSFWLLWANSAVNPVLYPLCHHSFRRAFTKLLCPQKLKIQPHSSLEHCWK

Compound	Ki [2] [nM]	other results
Brc1ccc2c(c1)CCN2C1CCN(Cc2ccc(OCCCN3CCCCC3)cc2)CC1 [Example 63, 5-Bromo-1-{1-[4-(3-piperidin-1-yl-propoxy)-benzyl]-piperidin-4-yl}-2,3-dihydro-1H-indole]		Ki [1]: 3 nM
CN(Cc1ccccc1)Cc1ccc(OCCCN2CCCCC2)cc1 [Example 80, Benzyl-methyl-[4-(3-piperidin-1-yl-propoxy)-benzyl]-amine]	1	
c1cc(OCCCN2CCCCC2)ccc1CNC1CC1 [Example 50, Cyclopropyl-[4-(3-piperidin-1-yl-propoxy)-benzyl]-amine]	1	
c1ccc(CCCC2CCN(Cc3ccc(OCCCN4CCCCC4)cc3)CC2)cc1 [Example 58, 1-[4-(3-Piperidin-1-yl-propoxy)-benzyl]-4-(3-phenyl-propyl)-piperidine]	1.9	
Clc1ccc(NCc2cccc(OCCCN3CCCCC3)c2)cc1 [Example 68, (4-Chloro-phenyl)-[3-(3-piperidin-1-yl-propoxy)-benzyl]-amine]	89	
CN1CCC(N(C)Cc2ccc(OCCCN3CCCCC3)cc2)CC1 [Example 76, Methyl-(1-methyl-piperidin-4-yl)-[4-(3-piperidin-1-yl-propoxy)-benzyl]-amine]	1.1	
CC(C)N1CCN(Cc2ccc(OCCCN3CCCCC3)cc2)CC1 [Example 88, 1-Isopropyl-4-[4-(3-piperidin-1-yl-propoxy)-benzyl]-piperazine]	2	
CN1CCN(Cc2ccc(OCCCN3CCCCC3)cc2)CC1 [Example 53, 1-Methyl-4-[4-(3-piperidin-1-yl-propoxy)-benzyl]-piperazine]	2.5	
c1cc(OCCCN2CCCCC2)ccc1OCCCN1CCCCC1 [Example 31, 1-{3-[4-(3-Piperidin-1-yl-propoxy)-phenoxy]-propyl}-piperidine]	0.5	
c1ccc2c(c1)CCC2NCc1ccc(OCCCN2CCCCC2)cc1 (stereo not shown) [Example 47, Indan-1-yl-[4-(3-piperidin-1-yl-propoxy)-benzyl]-amine]	1	
c1cc(OCCN2CCCCC2)ccc1CN1CCCCC1 [Example 20, 1-[2-(4-Piperidin-1-ylmethyl-phenoxy)-ethyl]-piperidine]	5	
CCN(Cc1ccncc1)Cc1ccc(OCCCN2CCCCC2)cc1 [Example 79, Ethyl-[4-(3-piperidin-1-yl-propoxy)-benzyl]-pyridin-4-ylmethyl-amine]	1.3	
CN(C)CCCOc1ccc(CN2CCCCC2)cc1 [Example 40, Dimethyl-[3-(4-piperidin-1-ylmethyl-phenoxy)-propyl]-amine]	5.7	
CN(Cc1ccccc1)C1CCN(Cc2ccc(OCCCN3CCCCC3)cc2)CC1 [Example 43, Benzyl-methyl-{1-[4-(3-piperidin-1-yl-propoxy)-benzyl]-piperidin-4-yl}-amine]	0.5	
c1ccc2c(c1)ncn2C1CCN(Cc2ccc(OCCCN3CCCCC3)cc2)CC1 [Example 60, 1-{1-[4-(3-Piperidin-1-yl-propoxy)-benzyl]-piperidin-4-yl}-1H-benzoimidazole]		Ki [1]: 2 nM
c1cc(N2CCNCC2)ccc1OCCCN1CCCC1 [Example 23, 1-[4-(3-Pyrrolidin-1-yl-propoxy)-phenyl]-piperazine hydrochloride]		Ki [1]: 1.3 nM
c1cc(-n2nnnc2SCCCN2CCCCC2)ccc1OCCCN1CCCCC1 [Example 32, 1-(3-{4-[5-(3-Piperidin-1-yl-propylsulfanyl)-tetrazol-1-yl]-phenoxy}-propyl)-piperidine]	0.5	
CN1CCN(CCCOc2ccc(CN3CCCCC3)cc2)CC1 [Example 52, 1-Methyl-4-[3-(4-piperidin-1-ylmethyl-phenoxy)-propyl]-piperazine]	25	
C(=C1CCN(Cc2ccccc2OCCCN2CCCCC2)CC1)c1ccccc1 [Example 70, 1-{3-[2-(4-Benzylidene-piperidin-1-ylmethyl)-phenoxy]-propyl}-piperidine]	380	

Compound	Ki [2] [nM]	other results
OC1(c2ccc(Cl)cc2)CCN(Cc2ccc(OCCCN3CCCCC3)cc2)CC1 [Example 86, 4-(4-Chloro-phenyl)-1-[4-(3-piperidin-1-yl-propoxy)-benzyl]-piperidin-4-ol]		Ki [1]: 1.8 nM
c1cc(OCCCN2CCCCC2)ccc1CN1CCCCCCCCCCCC1 [Example 45, 1-[4-(3-Piperidin-1-yl-propoxy)-benzyl]-azacyclotridecane]	2.5	
CN1CCCC1c1ccc(OCCCN2CCCCC2)cc1 (stereo not shown) [Example 37, 1-{3-[4-(1-Methyl-pyrrolidin-2-yl)-phenoxy]-propyl}-piperidine]	0.4	
OCCC1CCCCN1CCCOc1ccc(CN2CCCCC2)cc1 (stereo not shown) [Example 69, 2-{1-[3-(4-Piperidin-1-ylmethyl-phenoxy)-propyl]-piperidin-2-yl}-ethanol]	3.9	
c1cc(OCCCN2CCCCC2)ccc1CN1CCCC1 [Example 48, 1-[3-(4-Pyrrolidin-1-ylmethyl-phenoxy)-propyl]-piperidine]	1.2	
CN(C)CCOc1ccc(OCCCN2CCCCC2)cc1 [Example 29, Dimethyl-{2-[4-(3-piperidin-1-yl-propoxy)-phenoxy]-ethyl}-amine]	2.3	
c1ccc(-c2ccc(OCCCN3CCCCC3)cc2)c(CN2CCCCC2)c1 [Example 34, 1-[3-(2′-Piperidin-1-ylmethyl-biphenyl-4-yloxy)-propyl]-piperidine]	1.5	
c1cc(-c2ncc(OCCCN3CCCCC3)cn2)ccc1OCCCN1CCCCC1 [Example 33, 5-(3-Piperidin-1-yl-propoxy)-2-[4-(3-piperidin-1-yl-propoxy)-phenyl]-pyrimidine]	13	
CN(CCc1ccccc1)Cc1ccc(OCCCN2CCCCC2)cc1 [Example 83, Methyl-phenethyl-[4-(3-piperidin-1-yl-propoxy)-benzyl]-amine]	1.7	
OC1CCN(Cc2ccc(OCCCN3CCCCC3)cc2)CC1 [Example 89, 1-[4-(3-Piperidin-1-yl-propoxy)-benzyl]-piperidin-4-ol]		Ki: 0.6 nM
c1cc(OCCCN2CCCCC2)ccc1CN1CCOCC1 [Example 94, 4-[4-(3-Piperidin-1-yl-propoxy)-benzyl]-morpholine]	0.7	
c1ccc(N(CCN2CCCC2)C2CCN(Cc3ccc(OCCCN4CCCCC4)cc3)CC2)nc1 [Example 38, {1-[4-(3-Piperidin-1-yl-propoxy)-benzyl]-piperidin-4-yl}-pyridin-2-yl-(2-pyrrolidin-1-yl-ethyl)-amine]		Ki [1]: 1.2 nM
CC(C)N1CCN(c2ccc(OCCCN3CCCCC3)cc2)CC1 [Example 26, 1-Isopropyl-4-[4-(3-piperidin-1-yl-propoxy)-phenyl]-piperazine]	0.3	
c1ccc(N2CCN(Cc3ccc(OCCCN4CCCCC4)cc3)CC2)cc1 [Example 91, 1-Phenyl-4-[4-(3-piperidin-1-yl-propoxy)-benzyl]-piperazine]	1	
CN(CCc1ccccn1)Cc1ccc(OCCCN2CCCCC2)cc1 [Example 78, Methyl-[4-(3-piperidin-1-yl-propoxy)-benzyl]-(2-pyridin-2-yl-ethyl)-amine]	1	
C(=C1CCN(Cc2ccc(OCCCN3CCCCC3)cc2)CC1)c1ccccc1 [Example 72, 1-{3-[4-(4-Benzylidene-piperidin-1-ylmethyl)-phenoxy]-propyl}-piperidine]	1.3	
OC1(c2ccccc2)CCN(Cc2ccc(OCCCN3CCCCC3)cc2)CC1 [Example 87, 4-Phenyl-1-[4-(3-piperidin-1-yl-propoxy)-benzyl]-piperidin-4-ol]	1	
NC(=O)C1CCN(Cc2ccc(OCCCN3CCCCC3)cc2)CC1 [Example 57, 1-[4-(3-Piperidin-1-yl-propoxy)-benzyl]-piperidine-4-carboxylic acid amide]	1	

Source: patent US7186732B2, “Non-imidazole aryloxyalkylamines” (Ortho-McNeil Pharmaceutical, Inc., priority 2000, dated 2007)
